Laboratory results from patent US6432938B1, “19-nor-cholane steroids as neurochemical initators of change in human hypothalamic function” (Pherin Corporation, priority 1996, dated 2002).

Experiments:
vomeronasal organ (VNO) [1] = assay: Electrovomerogram (EVG) after airborne delivery of substance to the vomeronasal organ; type: in vivo, human; conditions: 2 second pulses to VNO, diluted in propylene glycol, number in cell = compound with effect
Source text: The stimulation and recording system consists of a “multifunctional miniprobe” described elsewhere (Monti-Bloch, L. and Grosser, B. l. (1991) “Effect of putative pheromones on the electrical activity of the human vomeronasal organ and olfactory epithelium,” J. Steroid Biochem. Molec. Bio. 39:573582). The recording electrode is a 0.3 mm silver ball attached to a small (0.1 mm) silver wire insulated with Teflon© the surface of the electrode is first treated to produce a silver chloride interface, and is then covered with gelatin It is positioned within a small caliber Teflon© catheter (dia=5 mm) such that the tip of the electrode protrudes approximately 2 mm. The Teflon© catheter is 10 cm in length and constitutes the terminal extension for a multichannel delivery system which delivers a continuous air stream carrying discreet pulses of chemosensory stimuli. The air stream first passes into a small chamber and is bubbled through a solution containing either a vomeropherin or an olfactant in a diluent or the diluent alone. A solenoid is used to rapidly redirect the air stream from the chamber to a route which bypasses the chamber. This creates a discreet pulse of stimulant in the air stream. A second, outer Teflon© tube with a diameter of 2 mm surrounds the catheter-electrode assemblage, and its central end is connected to an aspirator that provides continuous suction of 3 ml/s. This concentric arrangement of the outer suction tube allows the emitted chemosensory stimuli to be localized to an area we call a “minifield” (approx. dia=1 mm), and it avoids diffusion of substances either to the area outside the intended stimulation site or into the respiratory system. The entire stimulating and recording assemblage may be positioned either on the neurosensory epithelium within the VNo, or on the surface of the olfactory or respiratory epithelium.
Electro-vomeronasogram (EVG): Recordings are carried out in a quiet room with the subject supine; the multi-functional miniprobe is initially stabilized within the nasal cavity using a nasal retractor placed in the vestibule. Reference and ground electrodes consist of silver discs (8 mm), both of which are positioned on the glabella.
The entrance to the VNO, or vomeronasal pit, is identified by first dilating the nasal aperture and vestibule. A 6×magnifying binocular loupe with halogen illumination is then used to introduce the tip of the Teflon© catheter and recording electrode assemblage into the VNo opening where it is stabilized at an approximate depth of 1 mm within the vomeronasal passage. Optimal placement of the recording electrode is signaled after testing for an adequate depolarization in response to a test substance.
Electrical signals from the recording electrode are fed to a DC amplifier after which they are digitized, computer monitored, and stored. The peak-to-peak amplitude of the signals is measured, and the area under the depolarization wave is integrated, while continuously monitoring the signal both on the computer screen and on a digital oscilloscope. Artifacts produced by respiratory movements are deleted by training the subjects to practice mouth breathing with velopharyngeal closure. Samples of vomeropherins in concentration of 25-800 fmoles are delivered in the continuous air stream for durations from 300 milliseconds to 1 second. Usually, intervals of 3 to 5 minutes separated each series of short test pulses. All components of the lines carrying the test stimuli are made of Teflon©, glass or stainless steel and are carefully cleaned and sterilized before each use. Activity was recorded using standard electroencephalographic (EEG) electrodes placed at positions Cz-Al and Tz-Al of the international […] system; the ground electrode was placed on the mastoid process. Skin temperature (ST) was recorded by a small (1.0 mm) thermistor probe placed in the right ear lobe. Respiratory frequency (RF) was measured with an adjustable strain gauge placed around the lower thorax. […]

vomeronasal organ (VNO) [2] = assay: Reflex/autonomic responses (RF, CF, BT, EMG, EEG) to stimulation of the VNO with airborne substance; type: in vivo, human; conditions: for BT (body temperature): compound found to have an effect / EEG-T (electroencephalogram from temporal region): compound found to have an effect / RF (respiratory frequency): compound found to have an effect / EEG-V (electroencephalogram from vertex): compound found to have an effect / EMG (electromyogram): compound found to have an effect / CF (cardiac frequency): compound found to have an effect: 2 second pulses to VNO, number in cell = compound with effect; for gender dimorphic effects: males versus females, all recorded parameters
Protocol: Electrical signals from the recording electrode are fed to a DC amplifier after which they are digitized, computer monitored, and stored. The peak-to-peak amplitude of the signals is measured, and the area under the depolarization wave is integrated, while continuously monitoring the signal both on the computer screen and on a digital oscilloscope. Artifacts produced by respiratory movements are deleted by training the subjects to practice mouth breathing with velopharyngeal closure. Samples of vomeropherins in concentration of 25-800 fmoles are delivered in the continuous air stream for durations from 300 milliseconds to 1 second. Usually, intervals of 3 to 5 minutes separated each series of short test pulses. All components of the lines carrying the test stimuli are made of Teflon©, glass or stainless steel and are carefully cleaned and sterilized before each use. Activity was recorded using standard electroencephalographic (EEG) electrodes placed at positions Cz-Al and Tz-Al of the international […] system; the ground electrode was placed on the mastoid process. Skin temperature (ST) was recorded by a small (1.0 mm) thermistor probe placed in the right ear lobe. Respiratory frequency (RF) was measured with an adjustable strain gauge placed around the lower thorax. All electrical signals were DC amplified, digitized (MP-100, Biopac systems) and continuously monitored utilizing a computer.
Studies were conducted to determine the central nervous system (CNS) reflex responses to vomeropherin stimulation of the VNO. The sexually dimorphic local responses induced by vomeropherins were sometimes mirrored in the autonomic response of male & female subjects.
Fourteen different substances were tested against a control. All substances were diluted in propylene glycol, in 2 ml glass bottles coded with numbers. The solvent (propylene glycol) was used as control.
The airborne substances were delivered to the vomeronasal organ (VNO) in 2 second pulses, using a miniprobe. Several parameters were recorded Electrovomerogram (EVG), respiratory frequency (RF), cardiac frequency (ECG), electrodermal activity (EDA), body temperature (BT), electromyogram (EMG), and electroencephalogram from vertex (EEG-V) and temporal region (EEG-T).
A summary of the results is shown in Table I. Each number indicates the compound found to have an effect in females or in males, on the parameter indicated in the upper row of the table. (For the equivalence of each number to the corresponding compound in males, and in females, see the compound numbers).

CCCC=C1CCC2C3CCc4cc(O)ccc4C3=CCC12C (stereo not drawn) [Compound 1, 19,21-BISNORCHOLA-1,3,5(10),9(11),17(20)-PENTAEN-3-OL]
EVG (electrovomerogram): compound found to have an effect (vomeronasal organ (VNO) [1]; males (M)): 1
BT (body temperature): compound found to have an effect (vomeronasal organ (VNO) [2]; males (M)): 1

CCCCC1=CC[C@H]2[C@@H]3CCC4=C(CC[C@H](O)C4)[C@H]3CC[C@]12C [Compound 2, 19,21-BISNORCHOLA-5(10),16-DIEN-3beta-OL]
EVG (electrovomerogram): compound found to have an effect (vomeronasal organ (VNO) [1]; females (F)): 2
EVG (electrovomerogram): compound found to have an effect (vomeronasal organ (VNO) [1]; males (M)): 2
EEG-T (electroencephalogram from temporal region): compound found to have an effect (vomeronasal organ (VNO) [2]; females (F)): 2
BT (body temperature): compound found to have an effect (vomeronasal organ (VNO) [2]; males (M)): 2
RF (respiratory frequency): compound found to have an effect (vomeronasal organ (VNO) [2]; males (M)): 2
gender dimorphic effects (vomeronasal organ (VNO) [2]): gender specific

CCCC=C1CC[C@H]2[C@@H]3C=Cc4cc(O)ccc4[C@H]3CC[C@]12C [Compound 3, 19,21-BISNORCHOLA-1,3,5(10),6,17(20)-PENTAEN-3-OL]
EVG (electrovomerogram): compound found to have an effect (vomeronasal organ (VNO) [1]; females (F)): 3
EVG (electrovomerogram): compound found to have an effect (vomeronasal organ (VNO) [1]; males (M)): 3
EEG-V (electroencephalogram from vertex): compound found to have an effect (vomeronasal organ (VNO) [2]; females (F)): 3
BT (body temperature): compound found to have an effect (vomeronasal organ (VNO) [2]; males (M)): 3

CCCCC1=CC[C@H]2[C@@H]3CCC4=CC(=O)CC[C@]4(O)[C@H]3CC[C@]12C [Compound 4, 10beta-HYDROXY-19,21-BISNORCHOLA-4,16-DIEN-3-ONE]
RF (respiratory frequency): compound found to have an effect (vomeronasal organ (VNO) [2]; females (F)): 4
BT (body temperature): compound found to have an effect (vomeronasal organ (VNO) [2]; males (M)): 4
EMG (electromyogram): compound found to have an effect (vomeronasal organ (VNO) [2]; males (M)): 4

CCCC=C1CCC2C3CCC4=CC(O)CCC4C3CCC12C (stereo not drawn) [Compound 5, 19,21-BISNORCHOLA-4,17(20)-DIEN-3beta-OL]
EVG (electrovomerogram): compound found to have an effect (vomeronasal organ (VNO) [1]; females (F)): 5
RF (respiratory frequency): compound found to have an effect (vomeronasal organ (VNO) [2]; females (F)): 5

CC(O)CO (stereo not drawn) [Compound 6, PROPYLENE GLYCOL]
EVG (electrovomerogram): compound found to have an effect (vomeronasal organ (VNO) [1]; females (F)): 6
EEG-T (electroencephalogram from temporal region): compound found to have an effect (vomeronasal organ (VNO) [2]; females (F)): 6

CCCC=C1CC[C@H]2c3ccc4cc(O)ccc4c3CC[C@]12C [Compound 7, 19,21-BISNORCHOLA-1,3,5,7,9,17(20)-HEXAEN-3-OL]
EVG (electrovomerogram): compound found to have an effect (vomeronasal organ (VNO) [1]; females (F)): 7
EVG (electrovomerogram): compound found to have an effect (vomeronasal organ (VNO) [1]; males (M)): 7
BT (body temperature): compound found to have an effect (vomeronasal organ (VNO) [2]; males (M)): 7
EEG-T (electroencephalogram from temporal region): compound found to have an effect (vomeronasal organ (VNO) [2]; males (M)): 7

C=C(CCC)[C@H]1CC[C@H]2[C@@H]3CCc4cc(O)ccc4[C@H]3CC[C@]12C [Compound 8, 19-NORCHOLA-1,3,5(10),20-TETRAEN-3-OL]
CF (cardiac frequency): compound found to have an effect (vomeronasal organ (VNO) [2]; females (F)): 8
EMG (electromyogram): compound found to have an effect (vomeronasal organ (VNO) [2]; females (F)): 8
EEG-V (electroencephalogram from vertex): compound found to have an effect (vomeronasal organ (VNO) [2]; males (M)): 8

CCCC=C1CCC2C3=CCc4cc(O)ccc4C3CCC12C (stereo not drawn) [Compound 9, 19,21-BISNORCHOLA-1,3,5(10),7,17(20)-PENTAEN-3-OL]
CF (cardiac frequency): compound found to have an effect (vomeronasal organ (VNO) [2]; females (F)): 9

CCCCC1=CC[C@H]2[C@@H]3CCC4=C(CC[C@@H](O)C4)[C@H]3CC[C@]12C [Compound 10, 19,21-BISNORCHOLA-5(10),16-DIEN-3alpha-OL]
CF (cardiac frequency): compound found to have an effect (vomeronasal organ (VNO) [2]; females (F)): 10
EEG-T (electroencephalogram from temporal region): compound found to have an effect (vomeronasal organ (VNO) [2]; females (F)): 10
EEG-T (electroencephalogram from temporal region): compound found to have an effect (vomeronasal organ (VNO) [2]; males (M)): 10
EEG-V (electroencephalogram from vertex): compound found to have an effect (vomeronasal organ (VNO) [2]; males (M)): 10
gender dimorphic effects (vomeronasal organ (VNO) [2]): gender specific

CCCCC1=CC[C@H]2[C@@H]3CCc4cc(OC)ccc4[C@H]3CC[C@]12C [Compound 11, 3-METHOXY-19,21-BISNORCHOLA-1,3,5(10),16-TETRAENE]
CF (cardiac frequency): compound found to have an effect (vomeronasal organ (VNO) [2]; females (F)): 11
EEG-T (electroencephalogram from temporal region): compound found to have an effect (vomeronasal organ (VNO) [2]; females (F)): 11
EEG-V (electroencephalogram from vertex): compound found to have an effect (vomeronasal organ (VNO) [2]; females (F)): 11
CF (cardiac frequency): compound found to have an effect (vomeronasal organ (VNO) [2]; males (M)): 11
EEG-T (electroencephalogram from temporal region): compound found to have an effect (vomeronasal organ (VNO) [2]; males (M)): 11
EEG-V (electroencephalogram from vertex): compound found to have an effect (vomeronasal organ (VNO) [2]; males (M)): 11

CCCCC1=CCC2C3CCC4=C(CCC(=O)C4)C3CCC12C (stereo not drawn) [Compound 12, 19,21-bisnorchola-5(10),16-dien-3-one]
CF (cardiac frequency): compound found to have an effect (vomeronasal organ (VNO) [2]; males (M)): 12
